Common to all, as to assay type: physicochemical
Data set [1] can be described thus: Measurement of salt solubility: salts of 1-11 formed in situ and suspended in water, HPLC (UV-Vis). Particulars: for Solubility: free base plus 1.05-1.1 molar equivalence of acid, suspended in water for several days, method overestimates the solubility; for pH: pH in equilibrium with the solid phase of the salt suspended in water, most likely lower than pH of the salt in water. As to the method:
The solid free base was treated with a concentrated solution of the appropriate acid (1.05-1.1 molar equivalence) and suspended in water for several days. The pH and concentration of the compound in equilibrium with the solid phase was measured by HPLC (UV-Vis detection). This method overestimates the solubility of the salt due to the 5-10% excess of the acid that is added in the preparation of the salts. For the same reason, the pH's that are obtained are most likely lower than the pH of the salt in water.

The nature of data set [2]: Solubility of salts of 4-9 prepared in situ (pH and concentration by HPLC). Particulars: for Solubility: free base plus 1.05 mole equivalents of acid, suspended in 100 μL of water, rotated overnight, centrifuged; for pH: pH of the liquid residue of the aqueous suspension. The source says:
Two forms of the mesylate salt were made: Salt 4-9A above and Salt 4-9B below.

Data set [3] is described as follows: Solubility of free base 1-11 at room temperature in 0.05M aqueous buffers, water and organic solvents (HPLC). As to the method: The solubility of 1-11 at room temperature was determined in 0.05M aqueous buffers, water and several organic solvents.
A short description of data set [4]: Solubility of isolated crystalline salts of 1-11 in water and organic solvents. Particulars: for solubility at 7 days: thermodynamic from solid, RT for 7 days. As to the method: The amorphous mesylate salt was recrystallized from 50:50 Ethanol:THF to give a crystalline powder (Salt 1-11A). The X-ray powder diffraction pattern (XRPD) of the recrystallized mesylate salt 1-11A (FIG. 2) is indicative of crystalline material with multiple diffraction peaks between 5° and 30° 2-theta.
A second batch of crystalline mesylate salt (Salt 1-11B) was obtained by the following procdeure. To a stirred suspension of 1-11 (4.026 g, 9.22 mmol) in MeOH was slowly added at room temperature (RT) one equivalent of a 0.3M solution of methanesulfonic acid (30.73 mL). After all the solid had dissolved, the mixture was filtered into a flask and concentrated under reduced pressure while cooled to about 10° C. The resulting solid was suspended with 200 mL of ethylacetate, filtered, and dried to afford the mesylate salt. […] This crystalline form is different by XRPD than the one recrystallized from the amorphous salt in EtOH/THF (Salt 1-11A).
HCl salt 1-11D is also crystalline as witnessed by the X-ray powder diffraction pattern of the material, having multiple diffraction peaks between 5° and 30° 2-theta. […] (rate of 10° C./min). The compound is birefringent under plane polarized light. It is needle-shaped particles of approximately 5-25 micron. The solubility of salt 1-11D was measured in water and various organic solvents. Table VI below summarizes the solubility of the 1-11D suspended in various solvents for 7 days at room temperature.

The source of these data is patent US6960590B2, “Orally active salts with tyrosine kinase activity” (Merck & Co. Inc., priority 2000, dated 2005).

Each structure is given as a SMILES string. Structures can show the parent of a compound that is named as a salt.

Usually Solubility stands for the concentration that dissolves in the medium under given conditions. With `CS(=O)(=O)N1CCN(Cc2ccc3[nH]c(-c4cc5ccccc5[nH]c4=O)cc3c2)CC1` [Acetate salt of 1-11, 3-[5-(4-Methanesulfonyl-piperazin-1-ylmethyl)-1H-indol-2-yl]-1H-quinolin-2-one], in data set [1], the Solubility is 91 µg/mL and the pH came to 3.3.
As for `CS(=O)(=O)N1CCN(Cc2ccc3[nH]c(-c4cc5ccccc5[nH]c4=O)cc3c2)CC1` [Besylate salt of 1-11, 3-[5-(4-Methanesulfonyl-piperazin-1-ylmethyl)-1H-indol-2-yl]-1H-quinolin-2-one], in data set [1], the Solubility is 3.8 µg/mL and the pH was 2.4.
As to `CS(=O)(=O)N1CCN(Cc2ccc3[nH]c(-c4cc5ccccc5[nH]c4=O)cc3c2)CC1` [Citrate salt of 1-11, 3-[5-(4-Methanesulfonyl-piperazin-1-ylmethyl)-1H-indol-2-yl]-1H-quinolin-2-one], the Solubility in data set [1] is 110 µg/mL.
With `COCCN(C)CCOc1ccc2[nH]c(-c3cc4ccccc4[nH]c3=O)cc2c1` [Citrate salt of 4-9, 3-(5-{2-[(2-methoxyethyl)(methyl)amino]ethoxy}-1H-indol-2-yl)-2(1H)-quinolinone], in data set [2], the Solubility is 19800 µg/mL and the pH was 3.33.
Turning to `CS(=O)(=O)N1CCN(Cc2ccc3[nH]c(-c4cc5ccccc5[nH]c4=O)cc3c2)CC1` [HBr salt of 1-11, 3-[5-(4-Methanesulfonyl-piperazin-1-ylmethyl)-1H-indol-2-yl]-1H-quinolin-2-one], in data set [1], the Solubility is 200 µg/mL and the pH was determined as 2.9.
As for `CS(=O)(=O)N1CCN(Cc2ccc3[nH]c(-c4cc5ccccc5[nH]c4=O)cc3c2)CC1` [HCl salt of 1-11, 3-[5-(4-Methanesulfonyl-piperazin-1-ylmethyl)-1H-indol-2-yl]-1H-quinolin-2-one], in data set [1], the Solubility is 430 µg/mL and the pH came out at 2.3.
In the same order, the values of `CS(=O)(=O)N1CCN(Cc2ccc3[nH]c(-c4cc5ccccc5[nH]c4=O)cc3c2)CC1` [Maleate salt of 1-11, 3-[5-(4-Methanesulfonyl-piperazin-1-ylmethyl)-1H-indol-2-yl]-1H-quinolin-2-one] are 160 µg/mL and 2.5.
For the compound `COCCN(C)CCOc1ccc2[nH]c(-c3cc4ccccc4[nH]c3=O)cc2c1` [Mesylate 4-9B, 3-(5-{2-[(2-methoxyethyl)(methyl)amino]ethoxy}-1H-indol-2-yl)-2(1H)-quinolinone], the Solubility in data set [2] was found to be 22000 µg/mL.
Consider `CS(=O)(=O)N1CCN(Cc2ccc3[nH]c(-c4cc5ccccc5[nH]c4=O)cc3c2)CC1` [Mesylate salt of 1-11, 3-[5-(4-Methanesulfonyl-piperazin-1-ylmethyl)-1H-indol-2-yl]-1H-quinolin-2-one], for which, in data set [1], the Solubility is 580 µg/mL and the pH came to 2.3.
For the compound `CS(=O)(=O)N1CCN(Cc2ccc3[nH]c(-c4cc5ccccc5[nH]c4=O)cc3c2)CC1` [Salt 1-11, 3-[5-(4-Methanesulfonyl-piperazin-1-ylmethyl)-1H-indol-2-yl]-1H-quinolin-2-one], the Solubility came to 79 µg/mL in data set [3] (0.05M Carbonate, pH final 10.09, room temperature); 73 µg/mL in data set [3] (0.05M Citrate, pH final 4.15, room temperature); 70 µg/mL in data set [3] (0.05M Citrate, pH final 5.07, room temperature); 74 µg/mL in data set [3] (0.05M Phosphate, pH final 7.93, room temperature); 73 µg/mL in data set [3] (0.05M Phosphate, pH final 8.86, room temperature).
As to `CS(=O)(=O)N1CCN(Cc2ccc3[nH]c(-c4cc5ccccc5[nH]c4=O)cc3c2)CC1` [Salt 1-11B, 3-[5-(4-Methanesulfonyl-piperazin-1-ylmethyl)-1H-indol-2-yl]-1H-quinolin-2-one], the Solubility in data set [4] (acetonitrile, organic solvent or mixture) came out at 30 µg/mL.
One may read the solubility as the concentration that dissolves in the medium under given conditions. In the case of `CS(=O)(=O)N1CCN(Cc2ccc3[nH]c(-c4cc5ccccc5[nH]c4=O)cc3c2)CC1` [Salt 1-11D, 3-[5-(4-Methanesulfonyl-piperazin-1-ylmethyl)-1H-indol-2-yl]-1H-quinolin-2-one], the solubility at 7 days worked out at 4340 µg/mL in data set [4] (aqueous ETOH, aqueous with cosolvent or surfactant or cyclodextrin); 3990 µg/mL in data set [4] (aqueous IPA, aqueous with cosolvent or surfactant or cyclodextrin); 130 µg/mL in data set [4] (ethanol, organic solvent or mixture); 57 µg/mL in data set [4] (isopropanol, organic solvent or mixture); 620 µg/mL in data set [4] (water).
With `CS(=O)(=O)N1CCN(Cc2ccc3[nH]c(-c4cc5ccccc5[nH]c4=O)cc3c2)CC1` [Sulfate salt of 1-11, 3-[5-(4-Methanesulfonyl-piperazin-1-ylmethyl)-1H-indol-2-yl]-1H-quinolin-2-one], in data set [1], the Solubility was 130 µg/mL and the pH is 1.5.
As to `COCCN(C)CCOc1ccc2[nH]c(-c3cc4ccccc4[nH]c3=O)cc2c1` [Sulfate salt of 4-9, 3-(5-{2-[(2-methoxyethyl)(methyl)amino]ethoxy}-1H-indol-2-yl)-2(1H)-quinolinone], the pH in data set [2] is 1.40.
Turning to `COCCN(C)CCOc1ccc2[nH]c(-c3cc4ccccc4[nH]c3=O)cc2c1` [Tartrate salt of 4-9, 3-(5-{2-[(2-methoxyethyl)(methyl)amino]ethoxy}-1H-indol-2-yl)-2(1H)-quinolinone], in data set [2], the pH turned out to be 3.23.
